Reference: patent US7141560B2, “Alanine 2,6-dialkoxyphenyl ester derivatives as hypnotics” (Akzo Nobel N.V., priority 2001, dated 2006)

System: mice
Assay: Hypnotic activity: loss of righting reflex after intravenous injection in mice
Assay type: in vivo
Conditions: intravenous injection over 10 seconds, dose causing loss of righting reflex for minimum 30 seconds in 50% of treated mice; for ED50: Mus musculus, read-out: HD50 (hypnotic dose50)
Description: The hypnotic potency of the alanine 2,6-dialkoxyphenyl ester derivatives of the invention was determined upon their intravenous administration in mice. The dose required to cause a loss of righting reflex for a minimum period of 30 seconds in 50% of treated mice after intravenous injection over 10 seconds was determined. This dose is termed the HD50 (hypnotic dose50) and is expressed in μmol.kg^−1. These in vivo experiments were carried out as described in detail by Anderson et al., J. Med. Chem. 1997, 40, 1668–1681.

Row | Compound | HD50 (hypnotic dose50) [µmol/kg] | ED50 [µmol/kg]
1 | CCOCCN(CCOCC)C(CCOC)C(=O)Oc1c(OC)cccc1OC (stereo not drawn) [Example 10g, 2-[N-(Bis(2-ethoxyethyl)amino)]-4-methoxybutyric acid, 2,6-dimethoxyphenyl ester] | 28 | –
2 | COCCC(C(=O)Oc1c(OC)cccc1OC)N1CCC(OC)CC1 (stereo not drawn) [Example 10d, 4-Methoxy-2-[1-(4-methoxypiperidinyl)]butyric acid, 2,6-dimethoxyphenyl ester] | 21 | –
3 | COc1cc(C)cc(OC)c1OC(=O)C(CCS(C)(=O)=O)N1CC=CCC1 (stereo not drawn) [Example 43, Butanoic acid, 4-(methylsulphonyl)-2-(1-[1,2,3,6-tetrahydropyridinyl])-, 1-(2,6-dimethoxy-4-methylphenyl)ester] | 39 | –
4 | CCOCCN(CCOCC)C(COC)C(=O)Oc1c(OC)cccc1OC (stereo not drawn) [Example 3g, 2-[N-Bis(3-ethoxyethyl)amino]-3-methoxypropionic acid, 2,6-dimethoxyphenyl ester] | 25 | –
5 | COCCN(CCOC)C(CC(=O)OC)C(=O)Oc1c(OC)cccc1OC (stereo not drawn) [Example 24a, Butanedioic, 2-[N-bis(2-methoxyethyl)amino]-, 1-(2,6-dimethoxyphenyl)ester, 4-methyl ester] | 48 | –
6 | CCOCCN(CCOCC)C(CCC(=O)OC)C(=O)Oc1c(OC)cc(C)cc1OC.Cl (stereo not drawn) [Example 50] | 40 | –
7 | COCCN(CCOC)C(CCC(=O)OC)C(=O)Oc1c(OC)cccc1OC.Cl (stereo not drawn) [Example 48, Pentanedioic acid, 2-[bis-(2-methoxyethyl)amino]-, 1-(2,6-dimethoxyphenyl)ester, 5-methyl ester hydrochloride (1:1) salt] | 37 | –
8 | CC[C@@H]1CN(C(CN2CCOCC2)C(=O)Oc2c(OC)cccc2OC)CCO1 (stereo partly drawn) [Example 19e, 2-[(R)-4-(2-Ethylmorpholinyl)]-3-(4-morpholinyl)propanoic acid, 2,6-dimethoxyphenyl ester] | 27 | –
9 | COCCN(CCOC)C(CCSC)C(=O)Oc1c(OC)cc(C)cc1OC (stereo not drawn) [Example 39c, Butanoic acid, 2-[N-bis(2-methoxyethyl)amino]-4-(methylthio), 1-(2,6-dimethoxy-4-methylphenyl)ester] | 23 | –
10 | COc1cccc(OC)c1OC(=O)C(CN1CC=CCC1)N1CCSCC1 (stereo not drawn) [Example 19k, 3-(1,2,3,6-Tetrahydropyridinyl)-2-(N-thiomorpholinyl)propanoic acid, 2,6-dimethoxyphenyl ester] | 15 | –
11 | COCCC(C(=O)Oc1c(OC)cccc1OC)N1CCCOCC1 (stereo not drawn) [Example 51b, (ξ)-2-[4-(Hexahydro-1-oxazepinyl)]-4-methoxybutyric acid,2,6-dimethoxyphenyl ester] | 30 | –
12 | COCC(C(=O)Oc1c(OC)cccc1OC)N1CCCOCC1 (stereo not drawn) [Example 3a, 2-[4-(Hexahydro-1-oxazepinyl)]-3-methoxypropionic acid, 2,6-dimethoxyphenyl ester] | 30 | –
13 | COCC(C(=O)Oc1c(OC)cc(C)cc1OC)N1CCCC1 (stereo not drawn) [Example 3n, 3-Methoxy-2-[1-pyrrolidinyl]propionic acid, 2,6-dimethoxy-4-methylphenyl ester] | – | 34
14 | COCCC(C(=O)Oc1c(OC)cc(C)cc1OC)N1CCOCC1 (stereo not drawn) [Example 10i, 4-Methoxy-2-[4-morpholinyl]butyric acid, 2,6-dimethoxy-4-methylphenyl ester] | – | 36
15 | COCCCN(CCCOC)C(COC)C(=O)Oc1c(OC)cccc1OC (stereo not drawn) [Example 3f, 2-[N-Bis(3-methoxypropyl)amino]-3-methoxypropionic acid, 2,6-dimethoxyphenyl ester] | 46 | –
16 | CCN(CC)C(=O)CC(C(=O)Oc1c(OC)cc(C)cc1OC)N1CCOCC1 (stereo not drawn) [Example 32a, Butanedioic, 4-(diethylamino)-4-oxo-, 2-(4-morpholinyl)-, 1-(2,6-dimethoxy4-methylphenyl)ester] | 38 | –
17 | COC(=O)CC(C(=O)Oc1c(OC)cc(C)cc1OC)N1CCCCC1 (stereo not drawn) [Example 28b, Butanedioic, 2-(1-piperidinyl)-, 1-(2,6-dimethoxy-4-methylphenyl)ester, 4-methyl ester] | 48 | –
18 | COc1cccc(OC)c1OC(=O)C(CCSC)N1CCCC1 (stereo not drawn) [Example 40b, Butanoic acid, 4-(methylthio)-2-(1-pyrrolidinyl)-, 1-(2,6-dimethoxyphenyl)ester] | 40 | –

Row | Compound | HD50 (hypnotic dose50) [µmol/kg] | ED50 [µmol/kg]
19 | COC(=O)CC(C(=O)Oc1c(OC)cccc1OC)N1CCCCC1 (stereo not drawn) [Example 28a, Butanedioic, 2-(1-piperidinyl)-, 1-(2,6-dimethoxyphenyl)ester, 4-methyl ester] | 26 | –
20 | COc1cccc(OC)c1OC(=O)C(CCSC)N1CCCCC1 (stereo not drawn) [Example 40a, Butanoic acid, 4-(methylthio)-2-(1-piperidinyl)-, 1-(2,6-dimethoxyphenyl)ester] | <26 | –
21 | COc1cc(C)cc(OC)c1OC(=O)C(CCSC)N1CCCC1 (stereo not drawn) [Example 39b, Butanoic acid, 4-(methylthio)-2-(1-pyrrolidinyl)-, 1-(2,6-dimethoxy-4-methylphenyl)ester] | 31 | –
22 | COCCC(C(=O)Oc1c(OC)cc(C)cc1OC)N1CCCCCC1 (stereo not drawn) [Example 10n, 2-[1-(Hexahydroazepinyl)]-4-methoxybutyric acid, 2,6-dimethoxy-4-methylphenyl ester] | 38 | –
23 | CCOCCN(CCOCC)C(CCOC)C(=O)Oc1c(OC)cc(C)cc1OC (stereo not drawn) [Example 10m, 2-[N-(Bis(2-ethoxyethyl)amino)]-4-methoxybutyric acid, 2,6-dimethoxy-4-methylphenyl ester] | 25 | –
24 | COC(=O)CCC(C(=O)Oc1c(OC)cccc1OC)N1CCCCCC1.Cl (stereo not drawn) [Example 47b, Pentanedioic acid, 2-(1-hexahydroazepinyl)-, 1-(2,6-dimethoxyphenyl)ester, 5-methyl ester hydrochloride (1:1) salt] | 36 | –
25 | COC(=O)CCC(C(=O)Oc1c(OC)cccc1OC)N1CCSCC1.Cl (stereo not drawn) [Example 47c, Pentanedioic acid, 2-(N-thiomorpholinyl)-, 1-(2,6-dimethoxyphenyl)ester, 5-methyl ester hydrochloride (1:1) salt] | 44 | –
26 | COc1cccc(OC)c1OC(=O)C(CN1CCOCC1)N1CCO[C@H](C)C1 (stereo partly drawn) [Example 19d, 2-[(R)-4-(2-Methylmorpholinyl)]-3-(4-morpholinyl)propanoic acid, 2,6-dimethoxyphenyl ester] | 27 | –
27 | COc1cccc(OC)c1OC(=O)C(CN1CCOCC1)N1CCOCC1 (stereo not drawn) [Example 18c, 2,3-Di-(4-morpholinyl)propanoic acid, 2,6-dimethoxyphenyl ester] | – | 31
28 | COC(=O)CC(C(=O)Oc1c(OC)cc(C)cc1OC)N1CCOCC1 (stereo not drawn) [Example 26b, Butanedioic, 2-(4-morpholinyl)-, 1-(2,6-dimethoxy-4-methylphenyl)ester, 4-methyl ester] | 46 | –
29 | COCCC(C(=O)Oc1c(OC)cccc1OC)N1CC=CCC1 (stereo not drawn) [Example 10c, 4-Methoxy-2-[1-(1,2,3,6-tetrahydropyridinyl)]butyric acid, 2,6-dimethoxyphenyl ester] | 22 | –
30 | COc1cccc(OC)c1OC(=O)C(CN1CCOCC1)N1CCSC(C)(C)C1 (stereo not drawn) [Example 19c, 2-[N-(2,2-Dimethylthiomorpholinyl)]-3-(4-morpholinyl)propanoic acid, 2,6-dimethoxyphenyl ester] | 28 | –
31 | COCCN(CCOC)C(COC)C(=O)Oc1c(OC)cc(C)cc1OC (stereo not drawn) [Example 51d, (ξ)-2-[N-Bis(2-methoxyethyl)amino]-3-methoxypropionic acid, 2,6-dimethoxy-4-methylphenyl ester] | 36 | –
32 | COCCC(C(=O)Oc1c(OC)cc(C)cc1OC)N(CCOC)CCOC (stereo not drawn) [Example 10l, 2-[N-(Bis(2-methoxyethyl)amino)]-4-methoxybutyric acid, 2,6-dimethoxy-4-methylphenyl ester] | 26 | –
33 | COc1cccc(OC)c1OC(=O)C(CN1CCSCC1)N1CCOCC1 (stereo not drawn) [Example 19i, 2-(4-Morpholinyl)-3-(N-thiomorpholinyl)propanoic acid, 2,6-dimethoxyphenyl ester] | – | 19
34 | COCC(C(=O)Oc1c(OC)cc(C)cc1OC)N1CCCOCC1 (stereo not drawn) [Example 3m, 2-[4-(Hexahydro-1-oxazepinyl)]-3-methoxypropionic acid, 2,6-dimethoxy-4-methylphenyl ester] | 31 | –
35 | COC(=O)CCC(C(=O)Oc1c(OC)cc(C)cc1OC)N1CCCCC1.Cl (stereo not drawn) [Example 49b, Pentanedioic acid, 2-(1-piperidinyl)-, 1-(2,6-dimethoxy-4-methylphenyl)ester, 5-methyl ester hydrochloride (1:1) salt] | 47 | –
36 | CCOCCC(C(=O)Oc1c(OC)cccc1OC)N1CCCCCC1 (stereo not drawn) [Example 10q, 4-Ethoxy-2-[1-hexahydroazepinyl]butyric acid, 2,6-dimethoxyphenyl ester] | – | 25
